Counter-ions that a name gives are not always drawn. Like-named read-outs stand apart in the source and are kept apart here.

In data set [1] the test system is B16 subline of high pulmonary metastatic potential. Kind of data set: Inhibition of pulmonary metastasis of B16 subline pretreated with compound and injected i.v. into BDF1 mice. It counts as in vivo, murine; mouse BDF1. As to conditions: for Inhibition of metastasis to the lungs (in words): B16 subline, BDF1 mice. On the procedure: Based on the method described priviously (Method in Cancer Research, 15, 399-439, 1978), a subline of high metastatic potential (high pulmonary colonization) was selected from murine melanoma B16 by repeating the i.v. transplantation of the tumor cells in BDF1 mice and the isolation of pulmonary metastatic clones.
Evaluation of the metastasis inhibiting activity was performed based on the method described previously (Proc. Natl Acad. Sci. USA, 83, 1752-1756, 1986, Cancer Research, 46, 858-862, 1986).
Firstly, the B16 subline of high metastatic potential was inoculated into Dulbecco's ME medium (DME medium) supplemented with 10% bovine fetal serum and the compound represented by general formula (I) described above was added thereto.
The B16 subline of high pulmonary metastatic potential was inoculated into DME medium supplemented with 10% bovine fetal serum and 30, 100 or 300 μg/ml of N (3-phenylpropyl)-1-deoxynojirimycin was added thereto followed by incubation at 37° C. for 3 days in the presence of 5% CO2.
Inhibition of metastasis was examined in a manner similar to Test Example 2 except that N-(3-phenyl-2-propenyl)-1-deoxy-nojirimycin and N-(3-p-chlorophenyl-3-methyl-2-propenyl)-1-deoxynojirimycin were used instead of N-(3-phenylpropyl)-1-deoxynojirimycin in Test Example 2. In this test example, however, 2.5×10^5 cells each of the B16 subline were transplanted to 3 mice for each group.
The B16 subline of high pulmonary metastatic potential was inoculated into DME medium supplemented with 10% bovine fetal serum and 30 μg/ml of N-(4-phenoxy-trans-2-butenyl)-1-deoxynojirimycin was added thereto followed by incubation at 37° C. for 3 days in the presence of 5% CO2. […] The number of colonies of the B16 subline formed on the surface of and in the lung was counted.
Inhibition of metastasis was examined in a manner similar to Test Example 5 except that N-(2-phenoxyethyl)-1-deoxynojirimycin was used instead of N-(4-phenoxy-trans-2-butenyl)-1-deoxynojirimycin in Test Example 5.
The B16 sibline of high pulmonary metastatic potential was inoculated into DME medium supplemented with 10% bovine fetal serum and 10 μg/ml of D-glucaro-δ-lactam calcium salt was added thereto followed by incubation at 37° C. for 3 days in the presence of 5% CO2. […] The number of the colonies formed on the surface of and in the lung was counted.
Inhibition of metastasis was examined in a manner similar to Test Example 8 except that D-glucaro-δ-lactam methyl ester and D-glucaro-δ-lactam ethyl ester were used instead of D-glucaro-δ-lactam calcium salt in Test Example 8.
The B16 subline of high pulmonary metastatic potential was inoculated into DME medium supplemented with 10% bovine fetal serum and 10 μg/ml of 2,6-di-O-(acetylsalicyloyl)-D-gluco-δ-lactam was added thereto followed by incubation at 37° C. for 3 days in the presence of 5% CO2.
The B16 subline of high pulmonary metastatic potential was inoculated into DME medium supplemented with 10% bovine fetal serum and 30 μg/ml of 6-O-triphenylmethyl-D-gluco-δ-lactam was added thereto followed by incubation at 37° C. for 3 days in the presence of 5% CO2.
The B16 subline of high pulmonary metastatic potential was inoculated into DME medium supplemented with 10% bovine fetal serum and 30 μg/ml of 1-deoxynojirimycin was added thereto followed by incubation at 37° C. for 3 days in the presence of 5% CO2.

Data set [2] can be described thus: Acute toxicity (LD50) by mice. As to conditions: mouse, in vivo.
Data set [3] deals with B16 subline of high pulmonary metastatic potential. As to conditions: 3 days. As for the experimental part:
(§1) The B16 subline of high pulmonary metastatic potential and murine tumor cell line L 929 were cultured in DME medium supplemented with 10% bovine fetal serum at 37° C. in the presence of 5% CO2. Then, cells were detached from the Petri dish with trypsin-EDTA solution. The B16 subline and L 929 were suspended in the medium described above in 1×10^4 cells/ml and 1×10^3 cells/ml, respectively. Each suspension, 150 μl, was added to 50 μl of N-(3-phenylpropyl)-1-deoxynojirimycin solution or Adriamycin (control) solution. Incubation was performed for 3 days for the B16 subline and for 4 days for L 929 strain.
as §1, with “of N-(4-phenoxy-trans-2-butenyl)-1-deoxynojirimycin” for “of N-(3-phenylpropyl)-1-deoxynojirimycin”, “days in” for “days for”, “L 929.” for “L 929 strain.”
The B16 subline of high pulmonary metastatic potential and murine tumor cell line L 929 were cultured in DME medium supplemented with 10% bovine fetal serum at 37° C. in the presence of 5% CO2. Then, cells were detached from the Petri dish with trypsin-EDTA solution. The B16 subline and L 929 were suspended in the medium described above in 1×10^4 cells/ml and 1×10^3 cells/ml, respectively. Each suspension, 150 μl, was added to 50 μl of D-glucaro-δ-lactam calcium salt solution or Adriamycin (control) solutions. Incubation was performed for 3 days in the B16 subline and for 4 days in L 929.
The B16 subline of high pulmonary metastatic potential and murine tumor cell line L 929 were cultured in DME medium supplemented with 10% bovine fetal serum at 37° C. in the presence of 5% CO2. Then, cells were detached from the Petri dish with trypsin-EDTA solution. The B16 subline and L 929 were suspended in the medium described above in 1×10^4 cells/ml and 1×10^3 cells/ml, respectively. Each suspension, 150 μl, was added to 50 μl of 2,6-di-O-(1-(p-chlorobenzoyl)-5-methoxy-2-methylindole-3-acetyl)-D-gluco-δ-lactam solution or and Adriamycin (control) solutions. Incubation was performed for 3 days in the B16 subline and for 4 days in L 929.
The B16 subline of high pulmanary metastatic potential and murine tumor cell line L 929 were cultured in DME medium supplemented with 10% bovine fetal serum at 37° C. in the presence of 5% CO2. Then, cells were detached from the Petri dish with trypsin-EDTA solution. The B16 subline and L 929 were suspended in the medium described above in 1×10^4 cells/ml and 1×10^3 cells/ml, respectively. Each suspension, 150 μl, was added to 50 μl of 6-O-triphenylmethyl-D-gluco-δ-lactam solution or Adriamycin (control) solutions. Incubation was performed for 3 days in the B16 sibline and for 4 days in L 929.
The B16 subline of high pulmonary metastatic potential was inoculated into DME medium supplemented with 10% bovine fetal serum and 30 μg/ml of 1-deoxynojirimycin was added thereto followed by incubation at 37° C. for 3 days in the presence of 5% CO2. […] Next, the cells were detached from the Petri dish with trypsin-EDTA solution. The cells were suspended in PBS- in 1×10^6 cells/ml as viable cells. This suspension, 0.1 ml, was intravenously injected in the tail vein of the mouse BDF1 (8 week age, male; 1 group, 3 mice). After feeding for 14 days, the mouse was sacrificed to excise the lungs. The number of colonies of the B16 subline on the surface of and in the lungs was counted.

Data set [4] has as its system murine tumor cell line L 929. Kind of data set: Cytotoxic activity against L 929 (growth observed with inverted microscope, 4 days).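 On growth: + means growth and ± means marked inhibition and - means cell death.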 As to conditions: for Growth: 4 days. It counts as cell-based. As for the experimental part: The B16 subline of high pulmonary metastatic potential and murine tumor cell line L 929 were cultured in DME medium supplemented with 10% bovine fetal serum at 37° C. in the presence of 5% CO2.
The B16 subline of high pulmanary metastatic potential and murine tumor cell line L 929 were cultured in DME medium supplemented with 10% bovine fetal serum at 37° C. in the presence of 5% CO2.

Consider `OC[C@@H]1[C@@H](O)[C@H](O)[C@@H](O)CN1CCOc1ccccc1` [N-(2-Phenoxyethyl)-1-deoxynojirimycin, N-(2-phenoxyethyl)-1-deoxynojirimycin], for which the “Inhibition of metastasis to the lungs (in words)” value (“Inhibition of metastasis” for short) in data set [1] is “markedly inhibited”. Moreover, the “Pulmonary Metastasis (Mean ± Standard Deviation)” value in data set [1] (Table 7, 100 μg/ml, None 86 ± 22.1) is 7 ± 2.1 no.
Turning to `CC(=CCN1C[C@H](O)[C@@H](O)[C@H](O)[C@H]1CO)c1ccc(Cl)cc1` [N-(3-p-chlorophenyl-3-methyl-2-propenyl)-1-deoxynojirimycin], in data set [1], the “Inhibition of metastasis” value is “markedly inhibited”.
In the case of `O=C(O)[C@H]1NC(=O)[C@H](O)[C@@H](O)[C@@H]1O` [D-Glucaro-δ-lactam sodium salt], the median lethal dose (LD50) (usually the dose at which mortality reaches 50%) is greater than 3000 mg/kg in data set [2] (iv) and greater than 5000 mg/kg in data set [2] (po).
`COc1ccc2c(c1)c(CC(=O)OC[C@H]1NC(=O)[C@H](OC(=O)Cc3c(C)n(C(=O)c4ccc(Cl)cc4)c4ccc(OC)cc34)[C@@H](O)[C@@H]1O)c(C)n2C(=O)c1ccc(Cl)cc1` [2,6-di-O-[1-(p-chlorobenzoyl)-5-methoxy-2-methylindole-3-acetyl]-D-gluco-δ-lactam]: the Growth entry is listed as “+” in data set [3] (Table 11, B16 subline, 10 μg/ml); “+” in data set [4] (Table 11, L 929, 3 μg/ml); “+” in data set [4] (Table 11, L 929, 10 μg/ml); “+” in data set [4] (Table 11, L 929, 30 μg/ml). For the same compound, the “Cytotoxicity (in words)” value in data set [4] (L 929, even at a concentration as high as 10 μg/ml) is recorded as “did not show marked cytotoxity”.
In turn, `CC(=O)Oc1ccccc1C(=O)OC[C@H]1NC(=O)[C@H](OC(=O)c2ccccc2OC(C)=O)[C@@H](O)[C@@H]1O` [2,6-di-O-(acetylsalicyloyl)-D-gluco-δ-lactam] displayed an LD50 in data set [2] (ip) greater than 500 mg/kg. Further, the “Inhibition of metastasis” value in data set [1] is “markedly inhibited”. Moreover, the “Pulmonary Metastasis (Mean ± Standard Deviation)” value in data set [1] (Table 12, 10 μg/ml, 3 mice, None 53 ± 22.4) is recorded as 11.2 ± 3.5 no.
In the case of `CCOC(=O)[C@H]1NC(=O)[C@H](O)[C@@H](O)[C@@H]1O` [D-Glucaro-δ-lactam ethyl ester, D-glucaro-δ-lactam ethyl ester], the “Inhibition of metastasis” value in data set [1] is “markedly inhibited”. In data set [1] (Table 10, 30 μg/ml, None 82 ± 11.2), the “Pulmonary Metastasis (Mean ± Standard Deviation)” value is reported as 13 ± 5.4 no.
For `COc1cccc2c1C(=O)c1c(O)c3c(c(O)c1C2=O)C[C@@](O)(C(=O)CO)C[C@@H]3O[C@H]1C[C@H](N)[C@H](O)[C@H](C)O1` [Adriamycin, reference compound], the Growth result is “-” in data set [3] (Table 2, B16 subline, 0.1 μg/ml, control); “-” in data set [3] (Table 5, B16 subline, 0.1 μg/ml, control); “-” in data set [3] (Table 8, B16 subline, 0.1 μg/ml, control); “-” in data set [3] (Table 11, B16 subline, 0.1 μg/ml, control); “-” in data set [3] (Table 13, B16 subline, 0.1 μg/ml, control); “-” in data set [4] (Table 2, L 929, 1 μg/ml, control). Further, the Growth result was “-” in data set [4] (Table 5, L 929, 1 μg/ml, control); “-” in data set [4] (Table 8, L 929, 1 μg/ml, control); “-” in data set [4] (Table 11, L 929, 1 μg/ml, control); “-” in data set [4] (Table 13, L 929, 1 μg/ml, control).
For `OC[C@H]1NC[C@H](O)[C@@H](O)[C@@H]1O` [1-Deoxynojirimycin, 1-deoxynojirimycin], in data set [1], the “Inhibition of metastasis” value was “the number of colonies on the surface of and in the lungs was markedly inhibited”. Further, the “Pulmonary Metastasis (Mean ± Standard Deviation)” value in data set [1] (Table 15, 30 μg/ml, 3 mice, None 119 ± 37) is recorded as 31 ± 11 no.
Turning to `O=C(O)[C@H]1NC(=O)[C@H](O)[C@@H](O)[C@@H]1O` [D-Glucaro-δ-lactam calcium salt, D-glucaro-δ-lactam calcium salt], the Growth result was “+” in data set [3] (Table 8, B16 subline, 10 μg/ml); “+” in data set [3] (Table 8, B16 subline, 30 μg/ml); “+” in data set [4] (Table 8, L 929, 10 μg/ml); “+” in data set [4] (Table 8, L 929, 30 μg/ml). The “Inhibition of metastasis” value in data set [1] was “markedly inhibited”. Moreover, the “Pulmonary Metastasis, Mouse 1” value in data set [1] (Table 9, 10 μg/ml, 14 days) is reported as 7 no. The “Pulmonary Metastasis, Mouse 2” value in data set [1] (Table 9, 10 μg/ml, 14 days) turned out to be 4 no. Moreover, the “Pulmonary Metastasis, Mouse 3” value in data set [1] (Table 9, 10 μg/ml, 14 days) stood at 0 no. Besides, the “Pulmonary Metastasis (Mean ± Standard Deviation)” value in data set [1] (Table 9, 10 μg/ml, 14 days, None 69 ± 1.0) was found to be 3.7 ± 3.5 no. For the same compound, the “Pulmonary Metastasis, %” value in data set [1] (Table 9, 10 μg/ml, None = 100) was 5.4%. For the same compound, in data set [4] (L 929, even at a concentration as high as 30 μg/ml), the “Cytotoxicity (in words)” value is reported as “did not show marked cytotoxicity”.

The values above are taken from patent publication US4985445A, “Cancer cell metastasis inhibitors and novel compounds” (Meiji Seika Kaisha, Ltd., priority 1988, dated 1991).
